From US7183291B2 (Council of Scientific and Industrial Research, priority 1999, dated 2007)
Several values for one entry are separate records, joined by “and”; a condition that tells them apart may be missing. Equal entries are not always repeated.

Columns and labels:
[1] = tested on: P. cynomolgi B gametocytes; assay: Gametocytocidal test: infectivity of gametocytes from treated P. cynomolgi infected Rhesus monkeys to An. stephensi mosquitoes; assay type: in vivo
Method: For the gametocytocidal test, batches of 3–4 day old An. Stephensi were allowed to feed on P. cynomolgi infected Rhesus monkeys at appropriate gametocytaemia level. […] […] Mosquitoes were maintained as 26±1° C. under optimal insectary conditions. The infectivity rate and the oocyst counts were recorded on day 8. Mosquitoes were further maintained in the insectary to record the formation of sporozoites and the absence of sporozoites in some of the batches was also ensured by inoculation of mosquito homogenates into native monkeys.

[2] = tested on: developing oocysts of P. cynomolgi; assay: Effect on developing oocysts in An. stephensi mosquitoes (sporontocidal/oocysticidal action); assay type: in vivo; details: for % infectivity / No. of mosquitoes infected/dissected / oocyst number gut (Mean ± SD): Day 8 oocyst record
[3] = Methaemoglobin levels in Beagle dogs after 7-day oral treatment; details: dog, in vivo, 1.25 mg/kg
Method: Colony bred beagle dogs were maintained in the kennel house of the Institute and fed with a standard diet.
Treatment was administered once daily for seven doses (day 0–6), the day of the first dose being day 0. […] 5 ml. blood was collected from beagle dogs on day 0, 3, 7, 13 and 25 using potassium-oxalate crystals as anticoagulant. All the estimations/tests were conducted on the same day of collection of blood. Methaemoglobin was assayed by the method of Evelyn and Malloy (1938, J. Biol. Chem., 126, 655–662).

normal erythrocytes = assay: Reduced glutathione (GSH) in normal human erythrocytes after 3 h incubation; assay type: cell-based
Text: (§1) Drug induced haemolysis is a serious complication in persons deficient in G-6-PD enzyme. The presence of reduced glutathione (GSH) in erythrocytes control the level of oxidative metabolites. Therefore, drugs, which cause lesser oxidation of GSH level are safe. […] G-6-PD deficiency was detected by the fluorescent spot screening test and confirmed by the enzyme assay method. Heparinised blood samples were collected from each individual and after centrifugation, the packed cells were washed three times with cold saline. […] GSH levels were estimated by the method of Bentler et al [Improved Method for the Determination of Blood Glutathione, J. Lab.

[4] = tested on: G-6-PD deficient erythrocytes; assay: Reduced glutathione (GSH) in G-6-PD deficient human erythrocytes after 3 h incubation; assay type: cell-based; details: 25 and 50 μg/ml of PQ and equivalent doses, P<0.001
Text: as §1

sporozoites = assay: Infectivity test: mosquito homogenates inoculated into Rhesus monkeys; assay type: in vivo, P. cynomolgi; details: 11 batches; 1.87, 2.5, 3.75 and 5.00 mg base/kg; up to 60 days of observations
Method: For the gametocytocidal test, batches of 3–4 day old An. Stephensi were allowed to feed on P. cynomolgi infected Rhesus monkeys at appropriate gametocytaemia level. One hour after the control (pretreatment) feeding, compound of formula 1 was administered to the monkeys at 0.63, 1.25, 1.87, 2.5, 3.75 and 5.0 mg/kg in a single dose by oral route. Post-treatment feeding of batches of healthy mosquitoes was done at different times (5–48 hours). Mosquitoes were maintained as 26±1° C. under optimal insectary conditions. The infectivity rate and the oocyst counts were recorded on day 8. Mosquitoes were further maintained in the insectary to record the formation of sporozoites and the absence of sporozoites in some of the batches was also ensured by inoculation of mosquito homogenates into native monkeys.
Infectivity tests were carried out to ensure that there was no sporozoite development in the mosquito batches found negative for oocysts on day 8 following their feeding on drug treated monkeys. Homogenates of 40–50 mosquitoes each from 11 batches fed on gametocyte carrying monkeys treated with compound 1 at 1.87, 2.5, 3.75 and 5.00 mg base/kg were inoculated into native Rhesus monkeys.

[5] = 1.87 mg/kg single dose, feeding −1 hr (pre-treatment)
[6] = 3.75 mg/kg single dose, feeding +4 hr
[7] = 3.75 mg/kg single dose, feeding +5 hr
[8] = 3.75 mg/kg single dose, feeding +24 hr
[9] = 3.75 mg/kg single dose, feeding −1 hr (pre-treatment)
[10] = age of infection 24 hr, 50 mg/kg
[11] = age of infection 48 hr, 10 mg/kg
[12] = age of infection 48 hr, 50 mg/kg
[13] = age of infection 72 hr, 10 mg/kg
[14] = age of infection 72 hr, 50 mg/kg
[15] = age of infection 96 hr, 50 mg/kg
[16] = age of infection in mosquitoes 24 hr, fed on monkey given 10 mg/kg at −7 hr

COc1cc(NC(C)CCCN/C(C)=C2/CCOC2=O)c2ncccc2c1 (centres unmarked) [compound 1, N^1-(3-ethylidinotetrahydrofuran-2-one)-N^4-(6-methoxy-8-quinolinyl)-1,4-pentanediamine]
No. of mosquitoes infected/dissected [1, 5]: 25/30 and 23/25
Parasitaemia/mm^3 Asexual [1, 5]: 33602 /mm^3 and 61560 /mm^3
Parasitaemia/mm^3 Gametocytes [1, 5]: 1166 /mm^3 and 1026 /mm^3
monkeys with oocyst development completely blocked in batches fed 4–5 hr and +24 hr post-treatment ([1]; 3.75 mg/kg): 5/5
% infectivity [1, 6]: (0) %
No. of mosquitoes infected/dissected [1, 6]: 0/25 and 0/21 and 0/41
Oocyst No. per gut (Mean ± SD) [1, 6]: Nil
% infectivity [1, 7]: (0) %
No. of mosquitoes infected/dissected [1, 7]: 0/30
Oocyst No. per gut (Mean ± SD) [1, 7]: Nil**
% infectivity [1, 8]: (0) %
No. of mosquitoes infected/dissected [1, 8]: 0/28 and 0/21 and 0/30 and 0/27
Oocyst No. per gut (Mean ± SD) [1, 8]: Nil and Nil**
No. of mosquitoes infected/dissected [1, 9]: 26/27 and 15/22 and 33/40 and 22/22
Parasitaemia/mm^3 Asexual [1, 9]: 55728 /mm^3 and 45796 /mm^3 and 68320 /mm^3 and 48336 /mm^3
monkeys with oocyst development completely blocked in batches fed 4–5 hr and +24 hr post-treatment ([1]; 5.0 mg/kg): 3/3
time to render mature gametocytes non-infective to mosquitoes ([1]; 3.75 and 5.00 mg/kg): 4 to 5 h
sporozoites in salivary gland dissections, days 14–20 post infective blood meal ([1]; batches with blocked oocyst development (2.5, 3.75, 5.0 mg/kg)): did not show any sporozoites
sporontocidal/oocysticidal action on 24–96 hr old oocysts ([2]; 10–50 mg/kg): absence of sporontocidal/oocysticidal action
% infectivity [2, 10]: 85.19%
No. of mosquitoes infected/dissected [2, 10]: 23/27
oocyst number gut (Mean ± SD) [2, 10]: 67.00 ± 43.58
% infectivity [2, 11]: 100.0%
No. of mosquitoes infected/dissected [2, 11]: 20/20
oocyst number gut (Mean ± SD) [2, 11]: 133.20 ± 96.22
% infectivity [2, 12]: 78.79%
No. of mosquitoes infected/dissected [2, 12]: 26/33
oocyst number gut (Mean ± SD) [2, 12]: 46.15 ± 36.70
% infectivity [2, 13]: 88.00%
No. of mosquitoes infected/dissected [2, 13]: 22/25
oocyst number gut (Mean ± SD) [2, 13]: 20.36 ± 17.81
% infectivity [2, 14]: 86.21%
No. of mosquitoes infected/dissected [2, 14]: 25/29
oocyst number gut (Mean ± SD) [2, 14]: 27.16 ± 20.60
% infectivity [2, 15]: 69.23%
No. of mosquitoes infected/dissected [2, 15]: 18/26
oocyst number gut (Mean ± SD) [2, 15]: 40.33 ± 27.38
% infectivity [2, 16]: 85.00%
No. of mosquitoes infected/dissected [2, 16]: 17/20
oocyst number gut (Mean ± SD) [2, 16]: 144.47 ± 60.35
increase of Met-Hb values [3]: 1.7 fold
concentration at which fall in GSH levels reached statistical significance (normal erythrocytes): 31250 ng/mL
GSH (mg %) Mean ± SE (normal erythrocytes; dose 1.25 μg/ml): 44.08 ± 5.80 mg %
GSH (mg %) Mean ± SE (normal erythrocytes; dose 6.25 μg/ml): 42.50 ± 5.85 mg %
decrease in GSH level compared to controls [4]: statistically significant
monkeys developing infection after inoculation of homogenates of 40–50 mosquitoes from oocyst-negative batches (sporozoites): None
melting point: 118 to 120 °C
